Test: Preliminary solubility studies, ethanol versus water
Type: physicochemical

For O=C1NC(=O)C(c2ccccc2)(c2ccccc2)N1 [sodium phenytoin], the “solubility in ethanol compared with water” value was “less soluble in ethanol than it is in water”.

Source: patent US6245917A, “Crystalline sodium phenytoin monohydrate” (Warner-Lambert Company, priority 1999, dated 2001)
